Measurements reported in patent US9949948B2, “Artemisinin and its derivatives for use in the treatment of trauma haemorrhage and associated conditions” (Queen Mary University of London, priority 2011, dated 2018).

Tested on: rats subjected to regional myocardial ischaemia and reperfusion
Test: Regional myocardial ischaemia and reperfusion, artesunate and dihydroartemisinin
Type: in vivo, Wistar rats
Protocol: Rats were anaesthetised with thiopentone sodium (Intraval® 120 mg/kg i.p.). Anaesthesia was maintained by supplementary injections of thiopentone sodium as required. The trachea was cannulated and the animals were ventilated with a Harvard ventilator (inspiratory oxygen concentration: 30%; 70 strokes/min, tidal volume: 8-10 ml/kg). Body temperature was maintained at 37±1° C. with the aid of a rectal probe thermometer attached to a homeothermic blanket unit (Harvard Apparatus Ltd., Edenbridge, Kent. U.K.). […] The right jugular vein was then cannulated for the administration of drugs and saline. A para-sternal thoracotomy was then performed, using an Electrosurgery device to cauterize the intercostals arteries before cutting through three ribs. The chest was retracted and pericardium dissected from the heart. The left anterior descending (LAD) coronary artery was isolated and a snare occluder was placed around the LAD. The retractor was then removed and the animal was allowed to stabilise for 15 min.
The occluder was tightened at time 0. After 25 min of LAD-occlusion, the occluder was released to allow reperfusion of the previously ischemic myocardium (2 h). Haemodynamic parameters were continuously monitored. Baseline readings were taken prior to treatment, and, myocardial ischaemia reperfusion (IR) injury. The pressure rate index (PRI), a relative indicator of myocardial oxygen consumption was calculated as a product of the MAP (mmHg) and HR (beats/minute-bpm) and expressed in mm Hg bpm×10^−3.
At the end of the 2 h reperfusion period, the LAD was re-occluded and 1 ml of Evans Blue dye (2% w/v) was injected into the animal, via the jugular vein. The Evans Blue dye stains the tissue it can circulate through, therefore the non-perfused vascular (occluded) tissue remains un-coloured. Each animal was killed with an over-dose of anaesthetic, the heart excised, and excess dye washed off. […] The ischaemic and non-ischaemic tissue was weighed, and the AAR expressed as a percentage of the left ventricle. The tissue from the AAR was cut into small pieces and incubated with p-nitroblue tetrazolium (NBT, 0.5 mg/ml) for 30 min at 37° C. NBT is a reducing agent that reacts with dehydrogenases present in viable (non-infarcted) tissue to produce a dark blue formazan. Infarcted tissue (non-viable) will not have dehydrogenase activity and will therefore fail to stain. The stained tissue was separated from the infarcted tissue, weighed, and the infarct size expressed as a percentage of the AAR.
Sham-operated rats were subjected to surgical procedure without myocardial ischaemia and reperfusion.

[1] = bolus 0.1 mg/kg upon reperfusion, P>0.05 vs Control

Compound: C[C@@H]1CC[C@H]2[C@@H](C)C(O)O[C@H]3O[C@@]4(C)CC[C@@H]1[C@]32OO4 (stereo partly drawn) [dihydroartemisinin, (3R,5aS,6R,8aS,9R,12S,12aR)-decahydro-3,6,9-trimethyl-3,12-epoxy-12H-pyrano[4,3-j]-1,2-benzodioxepin-10-ol]
- infarct size (percentage of the AAR) (0.1 mg/kg i.v. bolus upon reperfusion, from 59.8±3.2, P<0.05): 46.5±1.3%
- Infarct size reduction (0.1 mg/kg i.v. upon reperfusion, vs control): 40%
- area at risk (0.1 mg/kg, compared to vehicle treated rats): no significant effect
- fall in mean arterial blood pressure caused by myocardial ischaemia and reperfusion [1]: did not attenuate
- heart rate [1]: did not have a significant effect
